Earlier results as cited in patent US20250074936A1, “A PROCESS FOR ISOLATION OF SAPONINS UTTROSIDE B AND UTTROSIDE A FROM SOLANUM NIGRUM LINN” (COUNCIL OF SCIENTIFIC AND INDUSTRIAL RESEARCH AN INDIAN …, priority 2022, published 2025).

What was measured:
HeLa cells = conditions: read-out: moderate cytotoxicity against HeLa cells, IC50
HCT-16 = HCT-16 cells; read-out: cytotoxicity towards HCT-16, IC50
PC-12 = PC-12 cells; read-out: cytotoxicity towards PC-12, IC50

Structure (SMILES)	IC50 (HeLa cells) [nM]	IC50 (HCT-16) [nM]	IC50 (PC-12) [nM]
CO[C@]1(CC[C@@H](C)COC2OC(CO)C(O)C(O)C2O)OC2C[C@H]3[C@@H]4CC[C@H]5C[C@@H](OC6OC(CO)C(OC7OC(CO)C(O)C(OC8OCC(O)C(O)C8O)C7OC7OC(CO)C(O)C(O)C7O)C(O)C6O)CC[C@]5(C)[C@H]4CC[C@]3(C)C2[C@@H]1C (stereo partly drawn) [uttroside A]	15400		
C[C@H](CC[C@@]1(O)OC2C[C@H]3[C@@H]4CC[C@H]5C[C@@H](OC6OC(CO)C(OC7OC(CO)C(O)C(OC8OCC(O)C(O)C8O)C7OC7OC(CO)C(O)C(O)C7O)C(O)C6O)CC[C@]5(C)[C@H]4CC[C@]3(C)C2[C@@H]1C)COC1OC(CO)C(O)C(O)C1O (stereo partly drawn) [uttroside B]		2330	1200
